Measured values reported in patent US20240358779A1, “EXTRACELLULAR VESICLES DERIVED FROM LACTOBACILLUS BACTERIA, AND USE THEREOF” (MD HEALTHCARE INC., priority 2021, published 2024).

Test system: AMPK
Assay: AMPK phosphorylation (pAMPK) in myocytes (Western blotting)
Assay type: cell-based
Description: During fasting or exercising, myocytes are depleted of energy, which causes a decrease in ATP production and an increase in AMP production. It is well known that, in this case, cells activate AMPK signaling to increase cellular homeostasis against metabolic stress. To evaluate a metabolic function regulating effect of Lactobacillus bacteria-derived vesicles, myocytes were each treated with Lactobacillus paracasei-derived vesicles (MDH-001-CM) and Lactobacillus rhamnosus-derived vesicles (MDH-003-CM) at concentrations of 0, 0.1, 1, and 10 μg/ml for 1 hour. Afterwards, the degree of AMPK phosphorylation (pAMPK), an indicator of AMPK signaling, was measured by Western blotting. As control drugs, 1 μM insulin and 50 mM metformin were used.

Row | Compound | phosphorylation of AMPK (pAMPK) (1 μM insulin) | phosphorylation of AMPK (pAMPK) (50 mM metformin)
1 | insulin | inhibited | 
2 | CN(C)C(=N)N=C(N)N [metformin] |  | increased
